Reference: patent EP0942911B1, “BENZOPYRANOPYRROLE AND BENZOPYRANOPYRIDINE ALPHA-1 ADRENERGIC COMPOUNDS” (Abbott Laboratories, priority 1996, dated 1998)
Counter-ions that a name gives are not always drawn. Like-named read-outs stand apart in the source and are kept apart here.

Columns and labels:
α-1d adrenoreceptor = target: T1, α-1d adrenoreceptor (Rattus norvegicus, UniProt P23944); test: biochemical; format: binding
T1 sequence (P23944 1-561): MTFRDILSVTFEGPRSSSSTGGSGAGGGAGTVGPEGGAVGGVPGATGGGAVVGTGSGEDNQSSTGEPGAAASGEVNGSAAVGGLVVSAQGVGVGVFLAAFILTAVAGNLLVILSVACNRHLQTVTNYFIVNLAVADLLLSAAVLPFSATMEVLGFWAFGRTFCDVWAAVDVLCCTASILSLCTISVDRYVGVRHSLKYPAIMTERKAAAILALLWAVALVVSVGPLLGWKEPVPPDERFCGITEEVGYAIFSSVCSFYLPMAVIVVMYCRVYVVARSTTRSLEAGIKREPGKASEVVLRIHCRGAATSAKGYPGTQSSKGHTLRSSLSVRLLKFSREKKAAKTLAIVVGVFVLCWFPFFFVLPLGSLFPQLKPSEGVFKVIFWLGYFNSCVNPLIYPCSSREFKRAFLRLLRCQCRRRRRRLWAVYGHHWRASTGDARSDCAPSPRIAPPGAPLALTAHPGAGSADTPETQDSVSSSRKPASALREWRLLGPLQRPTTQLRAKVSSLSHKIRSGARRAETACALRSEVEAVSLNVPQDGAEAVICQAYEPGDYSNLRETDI
Method in brief: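 Membranes were prepared from high-density single-cell clones of transfected LTK cells, plus rat submaxillary gland for the α-1A site. Binding was measured by radioligand displacement with scintillation counting.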

α-1B adrenoreceptor = target: T2, α-1B adrenoreceptor (Rattus norvegicus, UniProt P15823); test: cell-based; conditions: phenylephrine-induced contraction, Schild plot; for Kb: read-out: In Vitro Characterization (pA2) Rat Spleen (converted)
T2 construct: from tissue; host or cells: rat spleen
T2 sequence (P15823 1-515): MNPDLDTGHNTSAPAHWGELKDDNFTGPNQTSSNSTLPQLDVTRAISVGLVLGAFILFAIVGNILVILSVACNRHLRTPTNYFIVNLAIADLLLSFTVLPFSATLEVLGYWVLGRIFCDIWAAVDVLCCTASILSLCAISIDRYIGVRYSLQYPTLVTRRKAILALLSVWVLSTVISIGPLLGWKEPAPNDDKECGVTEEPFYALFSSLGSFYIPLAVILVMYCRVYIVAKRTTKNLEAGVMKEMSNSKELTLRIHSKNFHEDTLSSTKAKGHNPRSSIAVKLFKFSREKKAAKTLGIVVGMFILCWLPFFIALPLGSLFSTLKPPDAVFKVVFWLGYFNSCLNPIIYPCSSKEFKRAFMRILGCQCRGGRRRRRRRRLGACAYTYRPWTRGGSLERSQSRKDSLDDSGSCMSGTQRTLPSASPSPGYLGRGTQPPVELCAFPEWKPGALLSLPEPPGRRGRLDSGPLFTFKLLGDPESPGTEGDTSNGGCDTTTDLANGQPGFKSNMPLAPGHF
Excerpt: Functional assays indicative of pharmacologically defined α-1 adrenoreceptors were used to further characterize compounds. Inhibition of phenylephrine (PE)-induced contraction of canine prostate smooth muscle can be correlated with α-1A adrenoreceptor activation. […] For each of these models, agonist dose response curves were repeated against increasing concentrations of test agent to derive a Schild plot [log ([…]) against log (molarity of test agent)] to determine the pA2.

[1] = [3H]-prazosin radioligand, cloned receptor in LTK cell membranes, read-out: Radioligand Binding (Ki, nM) 1d (Rat)

Work on `COc1cccc2c1[C@@H]1CN(CCCCn3c(=O)[nH]c4c(sc5c(OC)ccnc54)c3=O)C[C@@H]1CO2` [Example 18, 3-[4-((3aR,9bR)-cis-9-Methoxy-1,2,3,3a,4,9b-hexahydro[1]-benzopyrano[3,4-c]pyrrol-2-yl)butyl]-6-methoxy-pyrido[2',3':4,5]thieno[3,2-d]pyrimidine-2,4(1H,3H)-dione dihydrochloride] yielded a Ki (α-1d adrenoreceptor; [1]) of 0.79 nM and a Kb (α-1B adrenoreceptor) of 19.5 nM.
Compound `COc1cccc2c1[C@@H]1CN(CCCCn3c(=O)[nH]c4c(sc5ncccc54)c3=O)C[C@H]1CO2` [Example 44, 3-[4-((3aS,9bR)-trans-9-Methoxy-1,2,3,3a,4,9b-hexahydro-[1]-benzopyrano[3,4-c]pyrrol-2-yl)butyl]-pyrido[3',2':4,5]thieno[3,2-d]pyrimidine-2,4(1H,3H)-dione hydrochloride] has a Ki (α-1d adrenoreceptor; [1]) of 0.081 nM and a Kb (α-1B adrenoreceptor) of 4.47 nM.
With `O=c1[nH]c2c(sc3cccnc32)c(=O)n1CCCCN1C[C@@H]2COc3ccccc3[C@@H]2C1` (racemic) [Example 70, 3-[4-((±)-cis-1,2,3,3a,4,9b-hexahydro-[1]-benzopyrano[3,4-c]pyrrol-2-yl)butyl]-pyrido[2',3':4,5]thieno[3,2-d]pyrimidine-2,4(1H,3H)-dione dihydrochloride] the Ki (α-1d adrenoreceptor; read-out: Radioligand Binding (Ki, nM) 1d (Rat)) was 0.482 nM and the Kb (α-1B adrenoreceptor) was 87.1 nM.
For `COc1cccc2c1[C@@H]1CN(CCCCn3c(=O)[nH]c4c(sc5nc(Cl)ccc54)c3=O)C[C@H]1CO2` [Example 47, 3-[4-((3aS,9bR)-trans-9-Methoxy-1,2,3,3a,4,9b-hexahydro-[1]-benzopyrano[3,4-c]pyrrol-2-yl)butyl]-7-chloro-pyrido[3',2':4,5]thieno[3,2-d]pyrimidine-2,4(1H,3H)-dione hydrochloride], the Ki (α-1d adrenoreceptor; [1]) was 0.189 nM and the Kb (α-1B adrenoreceptor) was 11.2 nM.
`COc1cccc2c1[C@@H]1CN(CCCCn3c(=O)[nH]c4c(sc5ccncc54)c3=O)C[C@H]1CO2` [Example 41, 3-[4-((3aS,9bR)-trans-9-Methoxy-1,2,3,3a,4,9b-hexahydro-[1]-benzopyrano[3,4-c]pyrrol-2-yl)butyl]-pyrido[3',4':4,5]thieno[3,2-d]pyrimidine-2,4(1H,3H)-dione dihydrochloride] was tested, and the Ki (α-1d adrenoreceptor; [1]) was 0.041 nM and the Kb (α-1B adrenoreceptor) was 3.98 nM.
`COc1cc2nc(N3CCN(C(=O)C4COc5ccccc5O4)CC3)nc(N)c2cc1OC` (centres unmarked) [Doxazosin, doxazosin, reference compound] was tested, and the Ki (α-1d adrenoreceptor) was 0.231 nM and the “In Vitro Characterization (pA2) Rat Spleen” value (α-1B adrenoreceptor) was 9.51.
In the case of `COc1cccc2c1[C@@H]1CN(CCCCn3c(=O)[nH]c4c(sc5c(Cl)nccc54)c3=O)C[C@H]1CO2` [Example 54, 3-[4-((3aS,9bR)-trans-9-Methoxy-1,2,3,3a,4,9b-hexahydro-[1]-benzopyrano[3,4-c]pyrrol-2-yl)butyl]-6-chloro-pyrido[4',3':4,5]thieno[3,2-d]pyrimidine-2,4(1H,3H)-dione], the Ki (α-1d adrenoreceptor; [1]) is reported as 0.173 nM and the Kb (α-1B adrenoreceptor) is reported as 49 nM.
Compound `COc1ccc2sc3c(=O)n(CCCCN4C[C@H]5COc6cccc(OC)c6[C@@H]5C4)c(=O)[nH]c3c2n1` [Example 26, 3-[4-((3aS,9bR)-trans-9-Methoxy-1,2,3,3a,4,9b-hexahydro-[1]-benzopyrano[3,4-c]pyrrol-2-yl)butyl]-8-methoxy-pyrido[2',3':4,5]thieno[3,2-d]pyrimidine-2,4(1H,3H)-dione hydrochloride] has a Ki (α-1d adrenoreceptor; [1]) of 0.017 nM and a Kb (α-1B adrenoreceptor) of 3.16 nM.
With `COc1cccc2c1[C@@H]1CN(CCCCn3c(=O)[nH]c4c(sc5nccc(OC)c54)c3=O)C[C@@H]1CO2` [Example 36, 3-[4-((3aR,9bR)-cis-9-Methoxy-1,2,3,3a,4,9b-hexahydro-[1]-benzopyrano[3,4-c]pyrrol-2-yl)butyl]-9-methoxy-pyrido[3',2':4,5]thieno[3,2-d]pyrimidine-2,4(1H,3H)-dione hydrochloride] the Ki (α-1d adrenoreceptor; [1]) was 0.36 nM and the Kb (α-1B adrenoreceptor) was 8.13 nM.
For `COc1cccc2c1[C@@H]1CN(CCCCn3c(=O)[nH]c4c(sc5nc(C)ccc54)c3=O)C[C@@H]1CO2` [Example 35, 3-[4-((3aR,9bR)-cis-9-Methoxy-1,2,3,3a,4,9b-hexahydro-[1]-benzopyrano[3,4-c]pyrrol-2-yl)butyl]-7-methyl-pyrido[3',2':4,5]thieno[3,2-d]pyrimidine-2,4(1H,3H)-dione hydrochloride], the Ki (α-1d adrenoreceptor; [1]) was 0.436 nM and the Kb (α-1B adrenoreceptor) was 11 nM.
